Test results reported in US20240116946A1 (Gilead Sciences, Inc., priority 2022, published 2024).
Like-named read-outs stand apart in the source and are kept apart here.

Columns and labels:
[1] = molecular target: recombinant SARS-CoV-2 Main protease (Mpro) (Severe acute respiratory syndrome coronavirus 2 (2019-nCoV) (SARS-CoV-2), UniProt P0DTD1); experiment: Cov Mpro Biochemical IC50 Assay; details: read-out: MPro IC50
SARS-CoV-2-NLuc = experiment: microbe, parasite or virus in culture; format: cell-based, SARS Coronavirus 2
[2] = recombinant SARS-CoV-2 Mpro 7.5 nM, fluorogenic peptide substrate 40 μM
[3] = Severe acute respiratory syndrome coronavirus, 48 h, read-out: MPro EC50
[4] = Severe acute respiratory syndrome coronavirus, 48 h; read-out: MPro EC50
[5] = recombinant SARS-CoV-2 Mpro, fluorogenic peptide substrate

**Q.** For COc1cc(-c2cc3[nH]c(=O)n(-c4cncc5sc(C(F)F)c(C)c45)c(=O)c3s2)c(Cl)cc1F [Example 1060, 6-(2-chloro-4-fluoro-5-methoxyphenyl)-3-(2-(difluoromethyl)-3-methylthieno[2,3-c]pyridin-4-yl)thieno[3,2-d]pyrimidine-2,4(1H,3H)-dione], which IC50 [1, 2] is on record?
**A.** Its IC50 is 0.02 µM.

**Q.** And the EC50 (SARS-CoV-2-NLuc; [3])?
**A.** The EC50 was 0.0289 µM.

**Q.** For COc1cc(-c2cc3[nH]c(=O)n(-c4cncc5ncc(C)n45)c(=O)c3s2)c(Cl)cc1F [Example 1082], which IC50 [1, 2] is on record?
**A.** The IC50 was 0.018 µM.

**Q.** And the EC50 (SARS-CoV-2-NLuc; [3])?
**A.** Its EC50 is 0.0911 µM.

**Q.** For Cn1ncc2cncc(-n3c(=O)[nH]c4cc(-c5cc(F)ccc5Cl)sc4c3=O)c21 [Example 663], which IC50 [1, 2] is on record?
**A.** The IC50 was 0.0144 µM.

**Q.** And the EC50 (SARS-CoV-2-NLuc; [3])?
**A.** Its EC50 is 0.0166 µM.

**Q.** With COc1cc(-c2cc3[nH]c(=O)n(-c4cncc5scc(C)c45)c(=O)c3s2)c(Cl)cc1F (single isomer, unassigned) [Example 1057, 6-(2-chloro-4-fluoro-5-methoxyphenyl)-3-(3-methylthieno[2,3-c]pyridin-4-yl)thieno[3,2-d]pyrimidine-2,4(1H,3H)-dione] as the compound, how does the IC50 [1, 2] read?
**A.** The IC50 was 0.145 µM.

**Q.** What about the EC50 (SARS-CoV-2-NLuc; read-out: MPro EC50) of the same compound?
**A.** The EC50 was 0.0526 µM.

**Q.** Which results are given for COc1cc(-c2cc3[nH]c(=O)n(-c4cncc5ccc(C)nc45)c(=O)c3s2)c(Cl)cc1F (single isomer, unassigned) [Example 1034, 6-(2-chloro-4-fluoro-5-methoxyphenyl)-3-(2-methyl-1,6-naphthyridin-8-yl)thieno[3,2-d]pyrimidine-2,4(1H,3H)-dione]?
**A.** IC50 [1, 2]: 0.00313 µM; EC50 (SARS-CoV-2-NLuc; read-out: MPro EC50): 0.00304 µM

**Q.** With Cc1ccc(C#N)c(-c2cc3c(s2)c(=O)n(-c2cncc4cnn(C)c24)c(=O)n3CCC#N)c1 [Example 784] as the compound, how does the IC50 [1, 2] read?
**A.** Its IC50 is 0.0108 µM.

**Q.** And the EC50 (SARS-CoV-2-NLuc; [3])?
**A.** Its EC50 is 0.0471 µM.

**Q.** For COc1cc(-c2cc3[nH]c(=O)n(-c4cncc5ccccc45)c(=O)c3s2)ccc1F [Example 469, 6-(4-fluoro-3-methoxy-phenyl)-3-(4-isoquinolyl)-1H-thieno[3,2-d]pyrimidine-2,4-dione], which IC50 [1, 2] is on record?
**A.** The IC50 was 0.276 µM.

**Q.** What about the EC50 (SARS-CoV-2-NLuc; [3]) of the same compound?
**A.** Its EC50 is 0.334 µM.

**Q.** For COc1cnc(Cl)c(-c2cc3c(s2)c(=O)n(-c2cncc(C(F)(F)F)c2)c(=O)n3CCC#N)c1 [Example 815], which IC50 [1, 2] is on record?
**A.** Its IC50 is 0.0524 µM.

**Q.** What about the EC50 (SARS-CoV-2-NLuc; [4]) of the same compound?
**A.** Its EC50 is 0.18 µM.

**Q.** How did the IC50 [1, 2] turn out when CC(=O)NCCn1c(=O)n(-c2cncc(C3CC3)c2)c(=O)c2sc(-c3ccccc3Cl)cc21 [Example 620] was run?
**A.** Its IC50 is 0.281 µM.

**Q.** And the EC50 (SARS-CoV-2-NLuc; [3])?
**A.** The EC50 was 0.759 µM.

**Q.** For O=c1[nH]c2cc(-c3c(Cl)cccc3-c3ccc4c(c3)CCS(=O)(=O)N4)ccc2c(=O)n1-c1cncc2ccccc12 [Example 327], which IC50 [1, 5] is on record?
**A.** The IC50 was 0.0133 µM.

**Q.** And the EC50 (SARS-CoV-2-NLuc; [3])?
**A.** The EC50 was 0.0963 µM.

**Q.** Which IC50 [1, 2] does the source give for COc1cc(-c2cc(OC)c3c(=O)n(-c4cncc5ccccc45)c(=O)[nH]c3c2)c(C#N)cc1F [Example 680] here?
**A.** The IC50 was 0.0217 µM.

**Q.** And the EC50 (SARS-CoV-2-NLuc; read-out: MPro EC50)?
**A.** The EC50 was 0.0208 µM.

**Q.** Which results are given for COc1cc(-c2cc3c(s2)c(=O)n(-c2cncc4cnccc24)c(=O)n3CCC#N)c(Cl)cc1F [Example 917]?
**A.** IC50 [1, 2]: 0.0075 µM; EC50 (SARS-CoV-2-NLuc; [3]): 0.00609 µM

**Q.** O=c1[nH]c2cc(-c3c(Cl)cccc3-c3cn(CC(F)F)nn3)ccc2c(=O)n1-c1cncc2ccccc12 [Example 292] was tested. Which IC50 [1, 5] did it give?
**A.** The IC50 was 0.12 µM.

**Q.** And the EC50 (SARS-CoV-2-NLuc; [3])?
**A.** Its EC50 is 0.169 µM.

**Q.** How did the IC50 [1, 5] turn out when Cc1nnc(-c2cccc(-c3ccc4c(=O)n(-c5cncc6ccccc56)c(=O)[nH]c4c3)c2)o1 [Example 39] was run?
**A.** The IC50 was 7.75 µM.

**Q.** What about the EC50 (SARS-CoV-2-NLuc; [4]) of the same compound?
**A.** The EC50 was 23.4 µM.

**Q.** How did the IC50 [1, 2] turn out when COc1ccc(Cl)c(-c2cc3[nH]c(=O)n(-c4cncc5c4cnn5C)c(=O)c3s2)c1 [Example 497] was run?
**A.** Its IC50 is 0.00624 µM.

**Q.** What about the EC50 (SARS-CoV-2-NLuc; [4]) of the same compound?
**A.** The EC50 was 0.0192 µM.

**Q.** Which results are given for COc1cc(Cl)c(-c2ccc3c(=O)n(-c4cncc5ccccc45)c(=O)[nH]c3c2)cc1OC [Example 255]?
**A.** IC50 [1, 5]: 0.307 µM; EC50 (SARS-CoV-2-NLuc; [3]): 0.332 µM

**Q.** Which IC50 [1, 2] does the source give for COc1cc(-c2cc3c(s2)c(=O)n(-c2cncc4ccccc24)c(=O)n3CC#N)c(Cl)cc1F (single isomer, unassigned) [Example 633, 2-[6-(2-chloro-4-fluoro-5-methoxy-phenyl)-3-(4-isoquinolyl)-2,4-dioxo-thieno[3,2-d]pyrimidin-1-yl]acetonitrile] here?
**A.** Its IC50 is 0.00322 µM.

**Q.** What about the EC50 (SARS-CoV-2-NLuc; read-out: MPro EC50) of the same compound?
**A.** The EC50 was 0.00329 µM.

**Q.** COc1ccc(C#N)c(-c2cc3[nH]c(=O)n(-c4cncc5ccc(N6CC(F)(F)OC(F)(F)C6)cc45)c(=O)c3s2)c1 [Example 230] was tested. Which IC50 [1, 5] did it give?
**A.** The IC50 was 0.0238 µM.

**Q.** And the EC50 (SARS-CoV-2-NLuc; [3])?
**A.** The EC50 was 0.128 µM.

**Q.** Which results are given for COc1cc(-c2cc3c(s2)c(=O)n(-c2cncc4c2n(C)c(=O)n4C)c(=O)n3CCC#N)c(Cl)cc1F [Example 937]?
**A.** IC50 [1, 2]: 0.00842 µM; EC50 (SARS-CoV-2-NLuc; [3]): 0.0115 µM

**Q.** Which IC50 [1, 5] does the source give for O=c1[nH]c2cc(-c3ccsc3-c3ccsc3Cl)ccc2c(=O)n1-c1cncc2ccccc12 [Example 85] here?
**A.** The IC50 was 1.49 µM.

**Q.** What about the EC50 (SARS-CoV-2-NLuc; [3]) of the same compound?
**A.** Its EC50 is 0.751 µM.

**Q.** For COc1cc(-c2cc3c(s2)c(=O)n(-c2cncc4cnn(C)c24)c(=O)n3CCS(C)(=O)=O)c(Cl)cc1F [Example 1067, 6-(2-chloro-4-fluoro-5-methoxy-phenyl)-3-(1-methylpyrazolo[4,3-c]pyridin-7-yl)-1-(2-methylsulfonylethyl)thieno[3,2-d]pyrimidine-2,4-dione], which IC50 [1, 2] is on record?
**A.** The IC50 was 0.0272 µM.

**Q.** And the EC50 (SARS-CoV-2-NLuc; [4])?
**A.** Its EC50 is 0.0578 µM.

**Q.** Which results are given for COc1cnc(Cl)c(-c2cc3c(s2)c(=O)n(-c2cncc(C)c2)c(=O)n3CCC#N)c1 [Example 885]?
**A.** IC50 [1, 2]: 0.00757 µM; EC50 (SARS-CoV-2-NLuc; [4]): 0.0229 µM

**Q.** With COc1cc(-c2cc3[nH]c(=O)n(-c4cncc5cnn(C)c45)c(=O)c3s2)c(Cl)cc1F [Example 505, 6-(2-chloro-4-fluoro-5-methoxyphenyl)-3-(1-methyl-1H-pyrazolo[4,3-c]pyridin-7-yl)thieno[3,2-d]pyrimidine-2,4(1H,3H)-dione] as the compound, how does the IC50 [1, 2] read?
**A.** The IC50 was 0.00545 µM.

**Q.** What about the EC50 (SARS-CoV-2-NLuc; [3]) of the same compound?
**A.** The EC50 was 0.00997 µM.

**Q.** For COc1ccc(Cl)c(-c2ccc3c(=O)n(-c4cncc5ccccc45)c(=O)[nH]c3c2)c1F [Example 322], which IC50 [1, 5] is on record?
**A.** The IC50 was 3.53 µM.

**Q.** And the EC50 (SARS-CoV-2-NLuc; [3])?
**A.** Its EC50 is 1.3 µM.

**Q.** For O=C1Nc2ccc(-c3cccc(Cl)c3-c3ccc4c(=O)n(-c5cncc6ccccc56)c(=O)[nH]c4c3)cc2C1(F)F [Example 173], which IC50 [1, 5] is on record?
**A.** Its IC50 is 0.38 µM.

**Q.** What about the EC50 (SARS-CoV-2-NLuc; [3]) of the same compound?
**A.** The EC50 was 0.65 µM.

**Q.** For COc1cc(-c2cc3[nH]c(=O)n(-c4cncc5nn(C)c(C)c45)c(=O)c3s2)c(Cl)cc1F [Example 754], which IC50 [1, 2] is on record?
**A.** The IC50 was 0.00921 µM.

**Q.** And the EC50 (SARS-CoV-2-NLuc; [3])?
**A.** Its EC50 is 0.0763 µM.

**Q.** With COc1ccc(Cl)c(-c2ccc3c(=O)n(-c4cncc(C)c4OCC(F)(F)F)c(=O)[nH]c3c2)c1 [Example 375] as the compound, how does the IC50 [1, 5] read?
**A.** Its IC50 is 0.345 µM.

**Q.** And the EC50 (SARS-CoV-2-NLuc; [4])?
**A.** Its EC50 is 0.632 µM.

**Q.** Which results are given for COc1cc(-c2cc3c(s2)c(=O)n(-c2cncc4nc(C)n(C)c24)c(=O)n3CCC#N)c(Cl)cc1F (single isomer, unassigned) [Example 969, 3-(6-(2-chloro-4-fluoro-5-methoxyphenyl)-3-(1,2-dimethyl-1H-imidazo[4,5-c]pyridin-7-yl)-2,4-dioxo-3,4-dihydrothieno[3,2-d]pyrimidin-1(2H)-yl)propanenitrile]?
**A.** IC50 [1, 2]: > 1 µM; EC50 (SARS-CoV-2-NLuc; read-out: MPro EC50): > 1 µM

**Q.** Which results are given for COc1ccc(C#N)c(-c2cc3[nH]c(=O)n(-c4cncc5c(Cl)cccc45)c(=O)c3s2)c1 [Example 594]?
**A.** IC50 [1, 2]: 0.883 µM; EC50 (SARS-CoV-2-NLuc; [3]): 0.929 µM

**Q.** Which IC50 [1, 2] does the source give for O=c1ccc2cncc(-n3c(=O)[nH]c4cc(-c5ccccc5Cl)sc4c3=O)c2[nH]1 [Example 452, 6-(2-chlorophenyl)-3-(2-oxo-1,2-dihydro-1,6-naphthyridin-8-yl)thieno[3,2-d]pyrimidine-2,4(1H,3H)-dione] here?
**A.** The IC50 was 0.00924 µM.

**Q.** And the EC50 (SARS-CoV-2-NLuc; [3])?
**A.** Its EC50 is 0.0825 µM.

**Q.** How did the IC50 [1, 2] turn out when Cc1nc2cncc(-n3c(=O)c4sc(-c5ccc(F)cc5Cl)cc4n(CCC#N)c3=O)c2n1C [Example 853, 3-(6-(2-chloro-4-fluorophenyl)-3-(1,2-dimethyl-1H-imidazo[4,5-c]pyridin-7-yl)-2,4-dioxo-3,4-dihydrothieno[3,2-d]pyrimidin-1(2H)-yl)propanenitrile] was run?
**A.** The IC50 was 0.0268 µM.

**Q.** And the EC50 (SARS-CoV-2-NLuc; [3])?
**A.** The EC50 was 0.102 µM.
